Assay results: patent EP2735339B1, “Extract and isolated compounds from Drechslera rostrata and/or Eurotium tonophilum for use as anti-leishmania-major agents” (King Saud University, priority 2012, dated 2014)
Converted amounts (≈) assume the structure as drawn. Read-outs that look alike come from different tables or passages of the source.

How the values were obtained:
leishmania [1] = conditions: antileishmanial activity; cited from earlier work
leishmania [2] = conditions: against leishmania; cited from earlier work
Leishmania spp = conditions: growth of Leishmania spp; cited from earlier work
Leishmania major = assay: In vivo anti-leishmanial activity, lesion size in infected mice under oral treatment; conditions: for Mean + SD lesion size(mm), day 1 of treatment: day 1 of oral treatment; for Mean + SD lesion size(mm), day 1 of treatment / Mean + SD lesion size(mm), day 4 of treatment / Mean + SD lesion size(mm), day 8 of treatment / Mean + SD lesion size(mm), day 11 of treatment / Mean + SD lesion size(mm), day 15 of treatment / Mean + SD lesion size(mm), day 18 of treatment / Mean + SD lesion size(mm), day 25 of treatment / Mean + SD lesion size(mm), day 28 of treatment: mice infected with L.major, n = 6; for Mean + SD lesion size(mm), day 4 of treatment: day 4 of oral treatment; for Mean + SD lesion size(mm), day 8 of treatment: day 8 of oral treatment; for Mean + SD lesion size(mm), day 11 of treatment: day 11 of oral treatment; for Mean + SD lesion size(mm), day 15 of treatment: day 15 of oral treatment; for Mean + SD lesion size(mm), day 18 of treatment: day 18 of oral treatment; for Mean + SD lesion size(mm), day 25 of treatment: day 25 of oral treatment; for Mean + SD lesion size(mm), day 28 of treatment: day 28 of oral treatment
Experimental: Balb/c mice ([…]) males were provided by Girls collage of science, Zoology department, King Saud University, Riyadh, KSA). The animals were housed in standard plastic cages and were maintained on standard feed and water ad libitum.
Each mouse was inoculated in the lumbar area with 10^7 of stationary phase Leishmania major suspended in 0.1 ml RPMI medium. The mice were kept at the animal house for 3-4 weeks till the lesion was observed. Extracts were administrated orally (400 mg/kg mouse body weight) daily until complete recovery from the lesion. Liver functions tests and histopathological examination of organs (liver, spleen and kidney) were done at the end of study.

[3] = system: Promastigotes of the reference strain of Leishmania major; assay: In vitro anti-leishmanial activity, MTT assay on promastigotes; assay type: cell-based; conditions: 72 hours, 26 °C
Experimental: Parasite: Promastigotes of the reference strain of Leishmania major were grown in RPMI-1640 medium supplemented with 10.000 Unites penicillin 10 µg of treptomycin/ml and 10 % heat inactivated fetal calf serum in 50 ml Nunc flasks at 26 °C in a dark environment. All experiments were performed with parasite cultures in the stationary phase by allowing them to grow for seven days.
Promastigotes were resuspended in fresh medium to achieve 10^6 parasites/ml and were seeded in 96-well Nunc culture plate, each well containing 100 µl medium with different concentrations of total extracts for both fungi (Drechslera rostrata and Eurotium tonophilum) in addition to the four isolated compounds. Control wells received only culture medium. The plates were incubated in 26 °C for 72 hours and Promastigotes viability was evaluated by the quantitative colorimetric MTT assay. The alteration of MTT to the formazan product by the mitochondrial electron transport chain is an indicator of cell viability, and a decrease in the amount of MTT converted indicated toxicity to the cell.
Briefly, the MTT labeling reagent was added to each well to the final concentration of 0.25 mg/ml. After incubation for 3 hours at 26 °C, DMSO was added to dissolve the formazan crystals and obtain a homogeneous blue solution suitable for measurement of the absorbance with an enzyme-linked immunosorbent assay plate reader (wave length 492).
Percent growth inhibition of the parasite was calculated by the following formula: % of inhibition = ((OD control-OD drugs))/(OD control) X 100 [formula]
The concentration inhibiting 50 % of the parasite growth (IC50) was calculated after evaluating percent growth inhibition at different concentrations. Reference compound was Pentostam.
Stock solutions of the total extracts , compounds, plus control drugs, were prepared at a concentration of 20 mg mL-1 in DMSO (Sigma, UK), and diluted to appropriate concentrations prior to assays. IC50 values were calculated with MSXLFIT (IDBS, UK) Djalma et al., J. Braz. Chem. Soc. Vol. 20, No. 4, 644-651, (2009).

Leishmania amazonensis = conditions: growth of Leishmania amazonensis; cited from earlier work

For `C/C=C(/C)C(=O)OC[C@H]1C2=C(C[C@H]3[C@H]4C5=C(C(=O)C(C)=C(OC)C5=O)[C@H](O)[C@@H](CN13)N4C)C(=O)C(C)=C(OC)C2=O` [Renieramycin A], the IC50 (leishmania [1]) is listed as 0.2 µg·mL.

In the case of `C=CCCC/C=C\C/C=C\CCCCCCCc1cc(O)cc(O)c1` [5-heptadeca-8'Z,11'Z,16-trienylresorcinol], the IC50 (leishmania [2]) is given as 3.6 µg/mL (≈ 10.5 µM).

In the case of `C=C1CCC[C@H]2[C@]1(CC[C@@]1(C)C3=CCCC(C)(C)[C@@H]3CC[C@@H]1C)CC[C@H](C)[C@]2(C)Cc1cc(OS(=O)(=O)O)ccc1OS(=O)(=O)O` [isoakaterpin], the IC50 (Leishmania spp) is given as 1050 nM.

With “1,8-Dihydroxy-3-methoxy-6-methyl-anthraquinone [Compound H3]” the “Mean + SD lesion size(mm), day 1 of treatment” value (Leishmania major) was 9.23±1.4 mm, the “Mean + SD lesion size(mm), day 4 of treatment” value (Leishmania major) was 7.28±2.1 mm and the “Mean + SD lesion size(mm), day 8 of treatment” value (Leishmania major) was 5.15±1.4 mm. For the same compound, the “Mean + SD lesion size(mm), day 11 of treatment” value (Leishmania major) was 3.41±1.8 mm, the “Mean + SD lesion size(mm), day 15 of treatment” value (Leishmania major) was 2.31±2.6 mm and the “Mean + SD lesion size(mm), day 18 of treatment” value (Leishmania major) was “zero”. The “Mean + SD lesion size(mm), day 25 of treatment” value (Leishmania major) was “zero”, the “Mean + SD lesion size(mm), day 28 of treatment” value (Leishmania major) was “zero” and the IC50 [3] was 19.38 µg/mL.

For `OCC(O)C(O)C(O)C(O)CO` (stereo not shown) [Compound H1, Hexane-1,2,3,4,5,6-hexol], the “Mean + SD lesion size(mm), day 1 of treatment” value (Leishmania major) was 9.95±1.5 mm, the “Mean + SD lesion size(mm), day 4 of treatment” value (Leishmania major) was 7.19±1.2 mm and the “Mean + SD lesion size(mm), day 8 of treatment” value (Leishmania major) was 4.85±1.2 mm. For the same compound, the “Mean + SD lesion size(mm), day 11 of treatment” value (Leishmania major) was 2.78±1.7 mm, the “Mean + SD lesion size(mm), day 15 of treatment” value (Leishmania major) was 1.21+1.1 mm and the “Mean + SD lesion size(mm), day 18 of treatment” value (Leishmania major) was “zero”. For the same compound, the “Mean + SD lesion size(mm), day 25 of treatment” value (Leishmania major) was “zero”, the “Mean + SD lesion size(mm), day 28 of treatment” value (Leishmania major) was “zero” and the IC50 ([3]; read-out: IC50) was 6.5 µg/mL (≈ 35.7 µM).

With Diisooctylphthalate [Compound H2] the “Mean + SD lesion size(mm), day 1 of treatment” value (Leishmania major) was 9.13±1.2 mm, the “Mean + SD lesion size(mm), day 4 of treatment” value (Leishmania major) was 6.18±1.2 mm and the “Mean + SD lesion size(mm), day 8 of treatment” value (Leishmania major) was 4.15±1.2 mm. The “Mean + SD lesion size(mm), day 11 of treatment” value (Leishmania major) was 1.11±1.2 mm, the “Mean + SD lesion size(mm), day 15 of treatment” value (Leishmania major) was 0.21±1.5 mm and the “Mean + SD lesion size(mm), day 18 of treatment” value (Leishmania major) was “zero”. The “Mean + SD lesion size(mm), day 25 of treatment” value (Leishmania major) was “zero”, the “Mean + SD lesion size(mm), day 28 of treatment” value (Leishmania major) was “zero” and the IC50 [3] was 3.2 µg/mL.

For `O.O.O.O.O.O.O.O.O.O=C([O-])[C@@H]1[O][Sb](=[O])([O][Sb]2(=[O])[O][C@H]([C@H](O)CO)[C@H](O)[C@H](C(=O)[O-])[O]2)[O][C@H]([C@H](O)CO)[C@@H]1O.[Na+].[Na+].[Na+]` (stereo partly shown) [Pentostam, reference compound], the “Mean + SD lesion size(mm), day 1 of treatment” value (Leishmania major) was 9.56±1.3 mm, the “Mean + SD lesion size(mm), day 4 of treatment” value (Leishmania major) was 8.98±2.0 mm and the “Mean + SD lesion size(mm), day 8 of treatment” value (Leishmania major) was 7.45±1.8 mm. For the same compound, the “Mean + SD lesion size(mm), day 11 of treatment” value (Leishmania major) was 6.9±1.3 mm, the “Mean + SD lesion size(mm), day 15 of treatment” value (Leishmania major) was 5.39±3.1 mm and the “Mean + SD lesion size(mm), day 18 of treatment” value (Leishmania major) was 4.32±2.1 mm. For the same compound, the “Mean + SD lesion size(mm), day 25 of treatment” value (Leishmania major) was 3.30±2.1 mm, the “Mean + SD lesion size(mm), day 28 of treatment” value (Leishmania major) was 2.61±2.5 mm and the “complete heeling after 28 days” value (Leishmania major; standard drug, 28 days) was “did not show complete heeling”.

For `C=C1C(=O)O[C@H]2C[C@@](C)(O)C3=CC[C@](C)(O)[C@@H]3C[C@H]12` [guaianolide], the IC50 (Leishmania amazonensis) is given as 2.6 µg/mL (≈ 9.84 µM).
